Data on eight compounds can be found in patent US9119808B1, “Treating neurodegenerative diseases with GGA or a derivative thereof” (COYOTE PHARMACEUTICALS, INC., priority 2012, dated 2015).

For series [1], the target named is GGTase I (Homo sapiens, UniProt P53609). As to the kind of experiment: GGTase I activity detected by fluorescent peptide dansyl-GCVLL. The class given is biochemical.
Series [2] in a line: Water solubility. Format: physicochemical. The source says:
The chemical structure of CNS-102 is shown. We have characterized CNS-102 (MW 330) by ^1H NMR, LC, and ESI mass spectrometry and no evidence of cis isomer was found. […] Such can enable CNS-102 to cross the blood brain barrier.

Series [3] concerns rat hippocampal neurons. Description: Rat neuroprotection model, kainic acid induced excitotoxic neuron loss in hippocampus (Assay 3). The class given is in vivo. The settings on record: for Rat Neuroprotection, % Protection: kainic acid rat model, 2 or 20 mg/kg. The method, then:
Excitotoxicity has been considered as one of the major causes for neuron loss in ALS. A probable cause for excitotoxic neuron death is excess glutamate around the synapses, due to impaired glutamate reuptake capabilities. Intra-cerebral infusion of kainic acid is a well-established and robust model for excitotoxic neuron death that has been used to investigate excitotoxicity for over fifty years. Compounds are tested, e.g., at two concentrations and compare to a vehicle control in a model that quantifies neuron loss in the CA3 area of the hippocampus. Such tests can evaluate blood brain barrier penetration and select compounds that provide neuroprotection from excitotoxic damage.
(§1) The overall strategy, therefore, is to use a sequence of assays, each of which is targeted to address a specific aspect of the disease with the goal of identifying candidates having multiple therapeutic capabilities. These assays are chosen such that a failure to perform at any stage is expected to be fatal to the candidate's suitability as a viable ALS treatment. To this end, the following four therapeutic capabilities and corresponding assays were chosen as shown in the list below. The advancement criteria, as well as assay design where relevant, are also presented. • 1. In some embodiments, the candidates increase HSP70 expression in target cells. The initial screen (pass/fail, Assay 1a) and quantitative evaluation (EC50, Assay 1b) of candidates will use a HSP70 expression assay by Western blot on cellular extracts of treated Neuro2A cells. The screen, Assay 1a, is conducted at a single concentration, requiring a specific level of activity to pass into Assay 1b, the quantitative dose/response determination of the EC50. Only those candidates having an ECK, below 10 nM would be promoted to Assay 2. • 2. In some embodiments, the candidates increase neuronal cell health/growth in the presence of specific inhibitors of GGTase I. The ability of candidates to promote neurite extension will be measured on Neuro2A cells to model whole-cell activities important to synaptic connections and neuronal function. Candidates showing >200 cells with outgrowth would be promoted to Assay 3. • 3. In some embodiments, the candidates provide protection to nerve tissue from excitotoxins. Neuroprotection afforded by candidates that have passed the first two assays will be determined on rat hippocampal neurons facing kainic acid induced damage. This is the final animal model before the ALS disease model and candidates that provide >50% protection would be tested in the disease model. • 4. In some embodiments, the candidates increase median survival time by 25% and improve neurological performance compared to control. This confirmation will be determined in the SOD1 mouse model.

Series [4] can be described thus: Bioavailability and brain penetration. The settings on record: in vivo.
Series [5] deals with HSP70 expression in Neuro2A cells. As to the kind of experiment: HSP70 expression by Western blot in treated Neuro2A cells (Assay 1a/1b). The class given is cell-based, murine. The settings on record: for HSP70 Expression, HSP70 by Western Blot: Neuro2A cells, Assay 1a screen at 1 μM. On the procedure: HSP70 expression in neuro2A cells treated with CNS-102 analogs are examined, using Western blot analysis. An increased expression of HSP70 will indicate the candidate molecule has the prerequisite activity. This assay has a Z factor of […] and a CV of 11% for CNS-102 at 1 nM to 100 nM.
A preliminary screen and quantitative performance evaluation, and a confirmatory neuroprotective assay are developed from a model of motor neuron dysfunction in a PNS cell line.
as §1, with “Candidates showing >200 cells with outgrowth would be promoted to Assay 3. • 3. In some embodiments, the candidates provide protection to nerve tissue from excitotoxins.” left out, “This is the final animal model before the ALS disease model and candidates that provide >50% protection would be tested in the disease model. • 4. In some embodiments, the candidates increase median survival time by 25% and improve neurological performance compared to control.” left out

Series [6] has as its system neuro2A neuroblastoma cell lines. Description: Neurite outgrowth in Neuro2A cells challenged with GGTase I inhibitor GGTI-298 (Assay 2). Format: cell-based, murine. To be noted: @ 10 nM, GGTI-298 challenge. The method, then: Neurite outgrowth in neuro2A neuroblastoma cell lines has been widely used as a cellular model for compounds screening in the CNS drug discovery and research. IN some embodiments, the effects of CNS-102 analogs on neurite outgrowth is determined. Cells will be pre-treated with candidates and then subjected to a challenge with GGTase I inhibitor GGTI-298. Retinoic Acid will be added to start the differentiation of these cells. This will identify analogs that protect neurite outgrowth, which is known to be important for establishing synaptic connections and neuronal functions. This assay has a Z factor of 0.4 and a CV of 11% for CNS-102 at 10 nM to 1 μM.
as §1

Series [7] concerns SOD1 mouse model of ALS. Description: SOD1 mouse model of ALS: survival and cat-walk gait (Assay 4). Format: in vivo. To be noted: for Run Duration, CNS-102-vehicle difference of averages / Stride Length, CNS-102-vehicle difference of averages / Swing Speed, CNS-102-vehicle difference of averages: cat-walk. On the procedure: Analyses were conducted using PROC LIFEREG in SAS.
Additionally, three neurological function outcomes were chosen for analysis from those measured on a ‘cat-walk’ at irregular intervals over the duration of the study; stride length (cm), run duration (s), and swing speed (cm/s).
This non-random censoring of the treatment group data precluded using standard comparative statistical methods such as the t-test due the unverifiable compliance of the remaining data with required statistical test assumptions. Consequently, a Monte Carlo estimate of the p-value of the treatment differences was constructed using the bootstrap method.
Survival studies and behavioral tests will be performed in the SOD1 G93A model of ALS. This transgenic mouse harbors a point mutation (G93A), found in familial ALS, in the gene encoding for superoxide dismutase 1 (SOD1). This very well characterized mouse model is widely used in ALS research. […] Motor neuron death in the ventral horn of the spinal cord and loss of myelinated axons in the ventral motor roots lead to paralysis and muscle wasting. Mice initially develop normally and gain weight until approximately 100 days of age. At this point, weight loss (which is usually defined as the onset of disease), muscle weakness, and gradual paralysis start at the hind limbs and muscle wasting start to appear. […] This means that drug efficacy studies using this model can be performed within a relatively short time frame of 4-5 months. To rigorously test the efficacy of candidates in this mouse model, neurological scores are monitored, and motor scores, life span, body weight and mice tested in a battery of behavioral paradigms suitable for motor assessment.

Series [8] concerns SOD1 G93A. The settings on record: pre-symptomatic administration or treatment at disease onset; cited from earlier work.
The subject of series [9] is cultured spinal neurons. To be noted: low concentration (1 nM-100 nM); cited from earlier work.

For `CC(=O)CC/C=C(\C)CC/C=C(\C)CC/C=C(\C)CCC=C(C)C` [CNS-102, 5E,9E,13E-geranylgeranylacetone], the “GGTase I activity” value in series [1] is reported as “modulates GGTase I activity”. The intrinsic water solubility result in series [2] is recorded as “little intrinsic water solubility”. Also, the “time of peak protection” value in [3] (hippocampus, locally injected kainic acid, following a single oral dose) was determined as 72 h. Moreover, in series [3], the “Rat Neuroprotection, % Protection” value is recorded as 40%. Also, the “expression of HSPs” value in [3] (rat kainic acid induced neurotoxicity model, HSP70 in hippocampus and cerebral cortex, HSP60, HSP70, HSP90 upregulated) is “increases expression of HSPs”. The “bioavailability and brain penetration” value in series [4] was “excellent”. Moreover, the “expression of HSPs” value in series [5] (murine Neuro2A cells, HSP70 and HSP90 found) is given as “increases expression of HSPs”. Besides, the “Neurite Outgrowth, Cell count relative to negative control” value in series [6] stood at 2.00. Besides, the “SOD1 Mouse Model, Survival and clinical scores: increase in survival” value in series [7] (SOD1 mouse model) stood at 9% increase. Besides, the “Increase over vehicle (median survival time)” value in series [7] (SOD1 mouse model, daily treatments, N=16/treatment) came out at 9%. Besides, the “improvement in median survival, CNS-102 outperformed riluzole by” value in series [7] (SOD1 mouse model, difference between drug groups not statistically significant at p=0.05) came to 50%. Besides, in series [7] (age P120 ± 1), the “Run Duration, CNS-102-vehicle difference of averages” value was -1.68 s; the “Stride Length, CNS-102-vehicle difference of averages” value stood at 1.46 cm; the “Swing Speed, CNS-102-vehicle difference of averages” value is 14.58 cm/s. In addition, in series [7] (age P124 ± 3), the “Run Duration, CNS-102-vehicle difference of averages” value was -1.49 s; the “Stride Length, CNS-102-vehicle difference of averages” value came out at 1.87 cm; the “Swing Speed, CNS-102-vehicle difference of averages” value is 11.70 cm/s.

Regarding `CC/C(=C\CCC(=O)C12CC3CC(CC(C3)C1)C2)CC/C=C(\C)CC/C=C(\C)CCC=C(C)C` [CNS-G001], in series [3], the “Rat Neuroprotection, % Protection” value is given as 37%. Besides, the “HSP70 Expression, HSP70 by Western Blot” value in [5] was determined as 2.00 × PBS. Besides, the “Neurite Outgrowth, Cell count relative to negative control” value in series [6] came to 1.79.

In the case of `CCCCCNC(=O)OC(C)CC/C=C(\C)CC/C=C(\C)CCC=C(C)C` (stereo not drawn) [CNS-G002], the “Neurite Outgrowth, Cell count relative to negative control” value in [6] amounted to 1.79.

With `CC(=O)CC/C=C(\C)CC/C=C(\C)CC/C=C(\C)CC/C=C(\C)CCC=C(C)C` [CNS-G003], the “Rat Neuroprotection, % Protection” value in [3] was found to be 82%. Further, the “Neurite Outgrowth, Cell count relative to negative control” value in series [6] stood at 2.74.

Consider `CC(C)=CCC/C(C)=C/CC/C(C)=C/CC/C(C)=C/COC(=O)C1CCCCC1` [CNS-G004], for which the “Rat Neuroprotection, % Protection” value in series [3] worked out at 76%. Also, the “Neurite Outgrowth, Cell count relative to negative control” value in series [6] came out at 2.61.

Regarding `CC(C)=CCC/C(C)=C/CC/C(C)=C/CC/C(C)=C/CC1CCCCC1=O` (stereo not drawn) [CNS-G005], in [3], the “Rat Neuroprotection, % Protection” value is on record as 83%. The “HSP70 Expression, HSP70 by Western Blot” value in [5] stood at 2.78 × PBS. Besides, the “Neurite Outgrowth, Cell count relative to negative control” value in series [6] was 2.28.

Consider `[O-][n+]1cccc(/C(Cl)=N/OC[C@H](O)CN2CCCCC2)c1` [arimoclomol], for which the “extension of life span” value in series [8] is “approximately 5 weeks”.

As for geranylgeranyl acetone [GGA], the “proteasome inhibitor induced neurotoxicity” value in series [9] was “reduce proteasome inhibitor induced neurotoxicity”.
